Patent US11076595B2, “1-(n,n-disubstituted carbamoyl) 4-(substituted sulfonyl)triazolin-5-one derivative, 4-(n,n-disubstituted carbamoyl) 1-(substituted sulfonyl)triazolin-5-one derivative, and herbicide containing said derivative as active ingredient” (HOKKO CHEMICAL INDUSTRY CO., LTD., priority 2017, dated 2021)

Key:
Assay in all cases: Test Example 11: herbicidal effect test by soil treatment in paddy field
Type in all cases: in vivo
Conditions in all cases: 120 g/10a active ingredient, 14 days after treatment
[1] = system: Echinochloa crus-galli
Source text: (§1) A Wagner pot having an area of 1/10000 are was filled with paddy field soil and after adding water, a chemical fertilizer (N:P:K=17:17:17) was mixed, followed by puddling. Thereafter, 30 grains of each of Echinochloa crus-galli, broad-leaved weed (Lindernia pyxidaria, Monochoria vaginalis) and Scirpus juncoides seeds were sown to a depth of 0 to 1 cm. Immediately after the sowing, the pot was flooded, and the depth of water was kept at about 3 cm. The pot was subsequently managed in a glass greenhouse. Just after that, an emulsifiable concentrate prepared according to Formulation Example 15 by using the compound shown in Table 9 below was diluted with water, and a predetermined amount of the water-diluted formulation was added dropwise. The application rate of the active ingredient, by conversion, corresponded to 120 g per 10 are.
(§2) This test was performed with two replications per one formulation concentration plot, and 14 days after the formulation treatments, the weed suppression rate (%) was determined according to the following equation (Math. 2). Weed suppression rate (%)=(1−average dry weight (g) of plants in treated plots/average dry weight (g) of plants in untreated plots)×100 [Math. 2]

[2] = system: Lindernia pyxidaria
Source text: as §1, §2

[3] = system: Scirpus juncoides
Source text: as §1, §2

[4] = system: Monochoria vaginalis
Source text: as §1, §2

CC(C)N(C(=O)n1cnn(S(=O)(=O)c2c(F)cccc2F)c1=O)c1ccc(C(F)(F)F)cc1F [Compound 11-790]
Weed suppression rate (%) Echinochloa crus-galli [1]: 80%
Weed suppression rate (%) Lindemia pyxidaria [2]: 90%
Weed suppression rate (%) Scirpus juncoides [3]: 90%
Weed suppression rate (%) Monochoria vaginalis [4]: 30%

CC(C)N(C(=O)n1cnn(S(=O)(=O)c2ccc(C(C)(C)C)cc2)c1=O)c1ccc(Br)cc1Cl [Compound 11-693]
Weed suppression rate (%) Echinochloa crus-galli [1]: 80%
Weed suppression rate (%) Lindemia pyxidaria [2]: 60%
Weed suppression rate (%) Scirpus juncoides [3]: 60%
Weed suppression rate (%) Monochoria vaginalis [4]: 60%

Cc1cc(Cl)ccc1N(C(=O)n1cnn(S(=O)(=O)c2ccccc2Cl)c1=O)C(C)C [Compound 11-527]
Weed suppression rate (%) Echinochloa crus-galli [1]: 90%
Weed suppression rate (%) Lindemia pyxidaria [2]: 80%
Weed suppression rate (%) Scirpus juncoides [3]: 90%
Weed suppression rate (%) Monochoria vaginalis [4]: 80%

CC(C)N(C(=O)n1cnn(S(=O)(=O)c2cccc(C(F)(F)F)c2)c1=O)c1c(F)cc(F)cc1F [Compound 11-727]
Weed suppression rate (%) Echinochloa crus-galli [1]: 90%
Weed suppression rate (%) Lindemia pyxidaria [2]: 80%
Weed suppression rate (%) Scirpus juncoides [3]: 80%
Weed suppression rate (%) Monochoria vaginalis [4]: 60%

Cc1cc(C)c(S(=O)(=O)n2ncn(C(=O)N(c3ccc(C(F)(F)F)cc3F)C(C)C)c2=O)c(C)c1 [Compound 11-880]
Weed suppression rate (%) Echinochloa crus-galli [1]: 80%
Weed suppression rate (%) Lindemia pyxidaria [2]: 80%
Weed suppression rate (%) Scirpus juncoides [3]: 30%
Weed suppression rate (%) Monochoria vaginalis [4]: 100%

CC(C)N(C(=O)n1cnn(S(=O)(=O)c2c(F)cccc2F)c1=O)c1ccc(F)cc1Cl [Compound 11-780]
Weed suppression rate (%) Echinochloa crus-galli [1]: 60%
Weed suppression rate (%) Lindemia pyxidaria [2]: 100%
Weed suppression rate (%) Scirpus juncoides [3]: 100%
Weed suppression rate (%) Monochoria vaginalis [4]: 60%

Cc1cc(C)c(S(=O)(=O)n2ncn(C(=O)N(c3c(F)cccc3F)C(C)C)c2=O)c(C)c1 [Compound 11-865]
Weed suppression rate (%) Echinochloa crus-galli [1]: 80%
Weed suppression rate (%) Lindemia pyxidaria [2]: 70%
Weed suppression rate (%) Scirpus juncoides [3]: 70%
Weed suppression rate (%) Monochoria vaginalis [4]: 70%

CC(C)N(C(=O)n1cnn(S(=O)(=O)c2cccc(Cl)c2)c1=O)c1ccccc1 [Compound 11-539]
Weed suppression rate (%) Echinochloa crus-galli [1]: 80%
Weed suppression rate (%) Lindemia pyxidaria [2]: 90%
Weed suppression rate (%) Scirpus juncoides [3]: 40%
Weed suppression rate (%) Monochoria vaginalis [4]: 40%

CC(C)N(C(=O)n1cnn(S(=O)(=O)c2ccc(Cl)cc2)c1=O)c1c(F)c(F)cc(F)c1F [Compound 11-593]
Weed suppression rate (%) Echinochloa crus-galli [1]: 80%
Weed suppression rate (%) Lindemia pyxidaria [2]: 70%
Weed suppression rate (%) Scirpus juncoides [3]: 30%
Weed suppression rate (%) Monochoria vaginalis [4]: 60%

Cc1ccc(N(C(=O)n2cnn(S(=O)(=O)c3c(F)cccc3F)c2=O)C(C)C)c(F)c1 [Compound 11-787]
Weed suppression rate (%) Echinochloa crus-galli [1]: 90%
Weed suppression rate (%) Lindemia pyxidaria [2]: 80%
Weed suppression rate (%) Scirpus juncoides [3]: 90%
Weed suppression rate (%) Monochoria vaginalis [4]: 80%

Cc1cc(F)ccc1N(C(=O)n1cnn(S(=O)(=O)c2ccccc2F)c1=O)C(C)C [Compound 11-415]
Weed suppression rate (%) Echinochloa crus-galli [1]: 80%
Weed suppression rate (%) Lindemia pyxidaria [2]: 70%
Weed suppression rate (%) Scirpus juncoides [3]: 30%
Weed suppression rate (%) Monochoria vaginalis [4]: 70%

CC(C)N(C(=O)n1cnn(S(=O)(=O)c2cccc(Cl)c2)c1=O)c1ccc(Cl)cn1 [Compound 11-574]
Weed suppression rate (%) Echinochloa crus-galli [1]: 90%
Weed suppression rate (%) Lindemia pyxidaria [2]: 80%
Weed suppression rate (%) Scirpus juncoides [3]: 50%
Weed suppression rate (%) Monochoria vaginalis [4]: 40%

CC(C)N(C(=O)n1cnn(S(=O)(=O)c2cccc(F)c2)c1=O)c1ccc(F)cc1Cl [Compound 11-445]
Weed suppression rate (%) Echinochloa crus-galli [1]: 100%
Weed suppression rate (%) Lindemia pyxidaria [2]: 70%
Weed suppression rate (%) Scirpus juncoides [3]: 100%
Weed suppression rate (%) Monochoria vaginalis [4]: 60%

Cc1cc(C)c(S(=O)(=O)n2ncn(C(=O)N(c3ccc(Cl)cc3C)C(C)C)c2=O)c(C)c1 [Compound 11-878]
Weed suppression rate (%) Echinochloa crus-galli [1]: 90%
Weed suppression rate (%) Lindemia pyxidaria [2]: 80%
Weed suppression rate (%) Scirpus juncoides [3]: 90%
Weed suppression rate (%) Monochoria vaginalis [4]: 80%

CC(C)N(C(=O)n1cnn(S(=O)(=O)c2cccc(C(F)(F)F)c2)c1=O)c1ccc(F)c(F)c1F [Compound 11-726]
Weed suppression rate (%) Echinochloa crus-galli [1]: 100%
Weed suppression rate (%) Lindemia pyxidaria [2]: 90%
Weed suppression rate (%) Scirpus juncoides [3]: 30%
Weed suppression rate (%) Monochoria vaginalis [4]: 30%

CC(C)N(C(=O)n1cnn(S(=O)(=O)CCl)c1=O)c1ccc(C(F)(F)F)cc1F [Compound 11-126]
Weed suppression rate (%) Echinochloa crus-galli [1]: 100%
Weed suppression rate (%) Lindemia pyxidaria [2]: 100%
Weed suppression rate (%) Scirpus juncoides [3]: 30%
Weed suppression rate (%) Monochoria vaginalis [4]: 60%

CC(C)N(C(=O)n1cnn(S(=O)(=O)c2ccc(Cl)cc2)c1=O)c1ccccc1 [Compound 11-577]
Weed suppression rate (%) Echinochloa crus-galli [1]: 40%
Weed suppression rate (%) Lindemia pyxidaria [2]: 60%
Weed suppression rate (%) Scirpus juncoides [3]: 0%
Weed suppression rate (%) Monochoria vaginalis [4]: 0%

CCN(CC)C(=O)n1cnn(S(=O)(=O)c2ccc(Cl)cc2)c1=O [Compound 11-576]
Weed suppression rate (%) Echinochloa crus-galli [1]: 40%
Weed suppression rate (%) Lindemia pyxidaria [2]: 0%
Weed suppression rate (%) Scirpus juncoides [3]: 0%
Weed suppression rate (%) Monochoria vaginalis [4]: 0%

CC(C)N(C(=O)n1cnn(S(=O)(=O)c2ccc(C(F)(F)F)cc2)c1=O)c1ccc(F)cc1F [Compound 11-749]
Weed suppression rate (%) Echinochloa crus-galli [1]: 60%
Weed suppression rate (%) Lindemia pyxidaria [2]: 70%
Weed suppression rate (%) Scirpus juncoides [3]: 70%
Weed suppression rate (%) Monochoria vaginalis [4]: 70%

CC(C)N(C(=O)n1cnn(S(=O)(=O)c2cccc(Cl)c2)c1=O)c1cccc(F)c1F [Compound 11-549]
Weed suppression rate (%) Echinochloa crus-galli [1]: 80%
Weed suppression rate (%) Lindemia pyxidaria [2]: 90%
Weed suppression rate (%) Scirpus juncoides [3]: 100%
Weed suppression rate (%) Monochoria vaginalis [4]: 100%

Cc1ccc(S(=O)(=O)n2ncn(C(=O)N(c3ccc(Cl)cc3Br)C(C)C)c2=O)cc1 [Compound 11-649]
Weed suppression rate (%) Echinochloa crus-galli [1]: 90%
Weed suppression rate (%) Lindemia pyxidaria [2]: 70%
Weed suppression rate (%) Scirpus juncoides [3]: 60%
Weed suppression rate (%) Monochoria vaginalis [4]: 60%

CC(C)N(C(=O)n1cnn(S(=O)(=O)c2ccc(Cl)cc2)c1=O)c1ccc(F)cc1Cl [Compound 11-595]
Weed suppression rate (%) Echinochloa crus-galli [1]: 90%
Weed suppression rate (%) Lindemia pyxidaria [2]: 90%
Weed suppression rate (%) Scirpus juncoides [3]: 60%
Weed suppression rate (%) Monochoria vaginalis [4]: 70%

Cc1cc(F)ccc1N(C(=O)n1cnn(S(=O)(=O)c2ccccc2Cl)c1=O)C(C)C [Compound 11-525]
Weed suppression rate (%) Echinochloa crus-galli [1]: 60%
Weed suppression rate (%) Lindemia pyxidaria [2]: 90%
Weed suppression rate (%) Scirpus juncoides [3]: 60%
Weed suppression rate (%) Monochoria vaginalis [4]: 90%

Cc1ccc(S(=O)(=O)n2ncn(C(=O)N(c3ccc(Cl)cc3C)C(C)C)c2=O)cc1 [Compound 11-652]
Weed suppression rate (%) Echinochloa crus-galli [1]: 90%
Weed suppression rate (%) Lindemia pyxidaria [2]: 80%
Weed suppression rate (%) Scirpus juncoides [3]: 90%
Weed suppression rate (%) Monochoria vaginalis [4]: 80%

CC(C)N(C(=O)n1cnn(S(=O)(=O)c2c(F)c(F)c(F)c(F)c2F)c1=O)c1ccc(F)c(F)c1F [Compound 11-814]
Weed suppression rate (%) Echinochloa crus-galli [1]: 70%
Weed suppression rate (%) Lindemia pyxidaria [2]: 90%
Weed suppression rate (%) Scirpus juncoides [3]: 30%
Weed suppression rate (%) Monochoria vaginalis [4]: 70%

Cc1cc(Cl)ccc1N(C(=O)n1cnn(S(=O)(=O)c2ccc(F)cc2)c1=O)C(C)C [Compound 11-490]
Weed suppression rate (%) Echinochloa crus-galli [1]: 90%
Weed suppression rate (%) Lindemia pyxidaria [2]: 80%
Weed suppression rate (%) Scirpus juncoides [3]: 90%
Weed suppression rate (%) Monochoria vaginalis [4]: 80%

CC(C)N(C(=O)n1cnn(S(=O)(=O)c2ccc(C(C)(C)C)cc2)c1=O)c1ccc(C(F)(F)F)cc1F [Compound 11-699]
Weed suppression rate (%) Echinochloa crus-galli [1]: 90%
Weed suppression rate (%) Lindemia pyxidaria [2]: 90%
Weed suppression rate (%) Scirpus juncoides [3]: 30%
Weed suppression rate (%) Monochoria vaginalis [4]: 70%

CC(C)N(C(=O)n1cnn(S(=O)(=O)c2ccc(Cl)cc2)c1=O)c1ccccc1F [Compound 11-578]
Weed suppression rate (%) Echinochloa crus-galli [1]: 90%
Weed suppression rate (%) Lindemia pyxidaria [2]: 80%
Weed suppression rate (%) Scirpus juncoides [3]: 90%
Weed suppression rate (%) Monochoria vaginalis [4]: 80%
